The text below walks through data of patent US20230312643A1, “PEPTIDE DERIVATIVE WITH COLLAGENASE INHIBITORY ACTIVITY, AND USE THEREOF” (SUNMARINE BIOTECH, priority 2020, published 2023).

Data set [1] has as its system gelatinase. Description: Gelatinase inhibitory activity (EnzChek Gelatinase/Collagenase Assay Kit, DQ gelatin). The format is biochemical. As for the experimental part: Gelatinase is an enzyme which plays a major role in promoting skin aging by more finely degrading collagen fragments digested by MMP-1 with MMP-2, and wrinkle reduction activity was determined by measuring the inhibitory activity of the enzyme.
Gelatinase inhibitory activity was performed by purchasing EnzChek® Gelatinase/Collagenase Assay Kit (250-2000 Assays) reagent from Invitrogen. First, DQ gelatin stock solution (1 mg/ml) was prepared by adding 1.0 ml of DDW to 1 mg DQ gelatin vial. The 18 ml of DDW was added to 2 ml of 10× reaction buffer, so as to dilute reaction buffer. Then, a gelatinase enzyme reagent was prepared, and diluted with reaction buffer to a final concentration of 0.2 U/ml as working solution. Three samples of 50 ? each were prepared in a 96-well plate. The 30 ? of reaction buffer was added to 20 ? of DQ gelatin and sample blank, and 30 ? of working solution was added to a sample, which were then left in a light-blocked state at room temperature for about one to two hours, and then fluorescence intensity was measured at excitation wavelength 485 nm and 535 nm using ELISA plate reader (VICTOR X3™, PerkinElmer, US).

The target in data set [2] is T1, elastase (Sus scrofa, UniProt P00772).
T1 construct: purchased Invitrogen
Description: Elastase inhibitory activity (EnzChek Elastase Assay Kit, DQ elastin). Type of data set: biochemical. As for the experimental part:
Elastase inhibitory activity was performed by purchasing EnzChek® Elastase Assay Kit (600 Assays) reagent from Invitrogen. First, DQ elastin stock solution (1 mg/ml) was prepared by adding 1.0 ml of DDW to 1 mg DQ elastin vial. The 18 ml of DDW was added to 2 ml of 10× reaction buffer, so as to dilute reaction buffer. Then, an elastase enzyme reagent was prepared, and diluted with reaction buffer to a final concentration of 0.2 U/ml as working solution. Three samples of 50 ? each were prepared in a 96-well plate. The 50 ? of reaction buffer was added to 50 ? of DQ elastin and sample blank, and 50 ? of working solution was added to a sample, which were then left in a light-blocked state at room temperature for about one hour, and then fluorescence intensity was measured at excitation wavelength 505 nm and emission wavelength 515 nm using ELISA plate reader (VICTOR X3™, PerkinElmer, US).
Copper peptide (Comparative Example 12) and EGCg (Comparative Example 13), which is widely used as a raw material for functional cosmetics, were prepared at the same concentration and used as a positive control.
EGCg (epigallocatechin gallate) is a kind of polyphenol, which is an extract of green tea leaves, and is used as a cosmetic raw material for anti-oxidation, inflammation reduction, and wrinkle alleviation, and Copper peptide is used as a raw material for promoting wound healing, strengthening skin elasticity, and increasing subcutaneous fat layer to suppress skin aging due to excellent skin regeneration ability.

Data set [3] addresses T2, MMP1 protein (pdb1cgl) (Homo sapiens, UniProt P03956).
T2 sequence (P03956 101-269 limits assumed): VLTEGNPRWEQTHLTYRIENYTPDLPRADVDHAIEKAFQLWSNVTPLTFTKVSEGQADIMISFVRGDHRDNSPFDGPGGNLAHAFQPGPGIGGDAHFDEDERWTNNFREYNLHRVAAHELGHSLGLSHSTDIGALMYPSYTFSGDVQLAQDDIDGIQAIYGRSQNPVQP
Description: Molecular docking (SYBYL-X 2.1.1, Surflex-Dock 2.7) of binding affinity to collagenase. Conditions: from Surflex-Dock total score. As for the experimental part:
Molecular modeling was conducted through a computer simulation program.
Target structure: MMP1 protein (pdb1cgl)
Software: SYBYL-X 2.1.1, Surflex-Dock2.7
Through a computer simulation program, a study was conducted on how to promote collagenase enzyme inhibitory activity and percutaneous absorption during peptide modification.
Total score is a value indicating the degree of binding affinity of a docked structure including a crash and a polar interaction in the unit of pKd, and the larger the value, the higher the binding affinity. And, the similarity is a value comparing the similarity with the structure already bonded to the 1cgl, and means that the closer to 1, the more similar. The result of such docking means that the addition of an appropriate modification residue through a docking simulation of computer chemistry may increase the binding affinity and similarity.
However, when compared with the overall consensus score, a binding affinity similar to or higher than that of pdb1cgl_ligand may be expected, particularly in the modified GPN and PGN, too.

The nature of data set [4]: HS68 cytotoxicity test (MTS cell viability). Type of data set: cell-based. The settings on record: human, HS68 cells (skin fibroblasts). As for the experimental part:
Skin fibroblast HS68 cells were used. The medium was DMEM high glucose (SH30243.01, HyClone™, Logan, UT, USA) medium containing 10% fetal bovine serum (FBS, Lonza, Valais, Switzerland) medium. The cell lines were cultured in an incubator adjusted to 95% humidity, 5% CO2 and 37° C., and at this time, a medium antibiotic (Penicillin streptomycin, Gibco, Calif., USA) was used to suppress contamination or proliferation of microorganisms.
Cell viability was measured using MTS (CellTiter 96® AQueous One Solution Cell Proliferation Assay, Promega, USA) reagent. The cells were divided at a concentration of 1×10^4 cells/well in a 96-well plate and then stabilized for 24 hours in an incubator controlled to 95% humidity, 5% CO2 and 37° C. After that, the samples were treated for each concentration and cultured for 24 hours in an incubator controlled to 95% j humidity, 5% CO2 and 37° C. After the medium was removed, 9 ml of medium (DMEM high, free FBS) was added to 1 ml of the reagent and diluted, and then 100 ul of the diluted solution was treated per well. After the reaction at 37° C. for 60 minutes, absorbance was measured at 490 nm with microplate reader (Molecular Devices, VersaMax ELISA Microplate Reader, USA). Cell viability was represented by absorbance of a sample-treated group compared to a control group not treated with the sample.

T1 sequence (P00772 27-266): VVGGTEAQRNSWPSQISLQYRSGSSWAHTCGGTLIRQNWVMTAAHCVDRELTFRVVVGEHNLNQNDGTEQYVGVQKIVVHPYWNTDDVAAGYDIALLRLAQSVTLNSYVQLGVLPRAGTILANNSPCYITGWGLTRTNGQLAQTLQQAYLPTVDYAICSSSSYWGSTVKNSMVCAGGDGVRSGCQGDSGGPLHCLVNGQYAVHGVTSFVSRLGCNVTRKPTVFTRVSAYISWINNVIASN

As to `NC(=O)C[C@H](NC(=O)CNC(=O)[C@@H]1CCCN1)C(=O)O` [PGN, Pro-Gly-Asn, reference compound], the Gelatinase inhibitory activity in data set [1] (0.2 mg/ml) is on record as 1.5 ± 5.5%; in data set [1] (0.3 mg/ml) it was 9.8 ± 0.8%; in data set [1] (0.4 mg/ml), 63.1 ± 2.1%; in data set [1] (0.5 mg/ml), 80.5 ± 1.2%. Also, testing at 20 µg/mL in data set [2] (0.02 mg/ml) gave an inhibition of 1.8 ± 0.6%. Testing at 40 µg/mL in data set [2] (0.04 mg/ml) gave an inhibition of 2.8 ± 1.2%. The inhibition – broadly, the percentage by which the read-out fell short of the control – at 60 µg/mL in data set [2] (0.06 mg/ml) was 6.1 ± 1.9%. In addition, the inhibition at 100 µg/mL in data set [2] (0.1 mg/ml) was found to be 7.5 ± 3.2%. This molecule registered an inhibition at 1000 µg/mL in data set [2] (1 mg/ml) of 7.5%. Also, in data set [2] (FIGS. 8 and 9), the IC50 (as a rule, the point on the concentration scale where inhibition reaches its midpoint) is 384 µM. For the same molecule, in data set [3], the “binding affinity compared to 1cgl ligand” value was approximately 61.5%. In data set [4] (HS68, 1 μg/ml), the viability (in general, a read-out of living cells in per cent, often relative to untreated cells) at 24 h, 1 µg/mL was found to be 104 ± 3.9%. The viability at 24 h, 10 µg/mL in data set [4] (HS68, 10 μg/ml) was determined as 117 ± 11.5%. Besides, the viability at 24 h, 50 µg/mL in data set [4] (HS68, 50 μg/ml) is 128 ± 2.2%. Moreover, the viability at 24 h, 100 µg/mL in data set [4] (HS68, 100 μg/ml) is 130.1 ± 0.1%.
